Laboratory results taken from patent US20250276924A1, “CHEMICAL AND BIOLOGICAL DEGRADATION OF ETHER PER- AND POLYFLUOROALKYL SUBSTANCES” (The Regents of the University of California, priority 2024, published 2025).

Assay: Chemical treatment by UV (254 nm)/sulfite advanced reduction at pH 9.5
Assay type: physicochemical
Procedure: The chemical treatment of five non-biodegradable PFAS was conducted in 600 mL closed-system batch reactors equipped with a low-pressure mercury lamp (254 nm, 18 W) at 20° C. The reaction mixture contained 25 μM ether PFAS, 10 mM Na2SO3, and 5 mM NaHCO3 at pH 9.5 adjusted by NaOH. […]

## O=C(O)C(F)(OC(F)(F)C(F)(F)C(F)(F)F)C(F)(F)F (centres unmarked) [E10, 2,3,3,3-tetrafluoro-2-(perfluoropropoxy)propanoic acid]
UV 254 nm, SO3^2− 10 mM, pH 9.5, after 48 h
  defluorination by chemical reductive degradation: less than 50%

## Trifluoroacetic acid [TP112]
Second advanced reduction treatment, result in words
  degradation by UV/sulfite treatment: quickly and completely degraded
